Measurements as given in patent publication US8669247B2, “2,5-disubstituted arylsulfonamide CCR3 antagonists” (Axikin Pharmaceuticals, Inc., priority 2009, dated 2014).
Where a name gives a salt, the structure may show the parent alone.

Legend:
CCR3 receptor = target: T1, CCR3 receptor (UniProt P51677); test: CCR3 Receptor Binding Assay ([125I]-labeled human eotaxin/CCL11 displacement on cells); settings: Free (free form of the compound)
T1 sequence (P51677 1-355): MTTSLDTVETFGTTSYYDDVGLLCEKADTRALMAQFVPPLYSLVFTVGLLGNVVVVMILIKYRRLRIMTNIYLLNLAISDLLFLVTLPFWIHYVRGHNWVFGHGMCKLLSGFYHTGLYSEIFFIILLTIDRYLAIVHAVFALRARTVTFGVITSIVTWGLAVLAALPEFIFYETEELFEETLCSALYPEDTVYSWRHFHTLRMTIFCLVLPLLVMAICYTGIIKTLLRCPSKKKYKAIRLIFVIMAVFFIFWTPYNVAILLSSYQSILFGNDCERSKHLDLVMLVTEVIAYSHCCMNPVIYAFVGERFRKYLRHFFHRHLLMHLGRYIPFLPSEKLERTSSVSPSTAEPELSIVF
Protocol: Cells were washed once with PBS and resuspended in a binding buffer (25 mM HEPES pH 7.6, 5 mM MgCl2, 1 mM CaCl2, 0.5% BSA, 0.1% NaN3), […] of cell suspension (2×10^5 cells/well) and 0.1 nM [^125I]-labeled human eotaxin/CCL11 (2000 Ci/mmol specific activity) were mixed in a 96-well U-bottom polypropylene plate, and incubated for 60 min at room temperature for the binding reaction. The cell suspension was then transferred to a filtration plate (#MAFB, Millipore), and washed 3 times with the binding buffer containing 0.5 M NaCl, scintillant added, and the radioactivity was counted on a TopCount (Packard). For the determination of non-specific binding, the cell suspension and [^125I]-labeled human eotaxin/CCL11 were incubated in the presence of 500 nM of unlabeled human eotaxin/CCL11. See, lino et al., “Molecular cloning and functional characterization of cynomolgus monkey (Macaca fascicularis) CC chemokine receptor, CCR3,” Cytokine 2002, 19, 276-286.

`Cc1ccc(C)c(Sc2ccc([N+](=O)[O-])cc2S(=O)(=O)N2CCOCC2)c1` [Compound 112, 4-(2-(2,5-Dimethylphenylthio)-5-nitrophenylsulfonyl)morpholine] showed a Ki (CCR3 receptor) greater than 5 nM and a melting point of 141 to 143 °C.

In the case of `N#Cc1ccc(Oc2cc(F)ccc2F)c(S(=O)(=O)N2CCOCC2)c1` [Compound 58, 4-(2,5-Difluorophenoxy)-3-(morpholinosulfonyl)benzonitrile], the Ki (CCR3 receptor) is reported as greater than 5 nM and the melting point is reported as 165 to 168 °C.

Work on `O=[N+]([O-])c1ccc(Oc2cc(Cl)ccc2Cl)c(S(=O)(=O)N2CCSCC2)c1` [Compound 115, 4-(2-(2,5-Dichlorophenoxy)-5-nitrophenylsulfonyl)thiomorpholine] yielded a Ki (CCR3 receptor) greater than 5 nM and a melting point of 191 to 194 °C.

In the case of `CC1CN(S(=O)(=O)c2cc([N+](=O)[O-])ccc2Oc2cc(Cl)ccc2Cl)CC(C)N1` (stereo not drawn) [Compound 104, 1-(2-(2,5-Dichlorophenoxy)-5-nitrophenylsulfonyl)-3,5-dimethylpiperazine], the Ki (CCR3 receptor) is reported as 10 to 25 nM and the melting point is reported as 161 to 163 °C.

With `O=[N+]([O-])c1ccc(Sc2cc(Cl)ccc2Cl)c(S(=O)(=O)N2CCNCC2)c1` [Compound 123, 1-(2-(2,5-Dichlorophenylthio)-5-nitrophenylsulfonyl)piperazine] the Ki (CCR3 receptor) was 10 to 25 nM and the melting point was 150 to 153 °C.

With `Cc1ccc(C)c(Sc2ccc([N+](=O)[O-])cc2S(=O)(=O)N2CCSCC2)c1` [Compound 116, 4-(2-(2,5-Dimethylphenylthio)-5-nitrophenylsulfonyl)thiomorpholine] the Ki (CCR3 receptor) was greater than 5 nM and the melting point was 130 to 137 °C.

In the case of `Cc1ccc(C)c(Sc2ccc([N+](=O)[O-])cc2S(=O)(=O)N2CCNCC2)c1` [Compound 122, 1-(2-(2,5-Dimethylphenylthio)-5-nitrophenylsulfonyl)piperazine], the Ki (CCR3 receptor) is reported as 100 to 500 nM and the melting point is reported as 142 to 145 °C.

In the case of `N#Cc1ccc(Sc2cc(Cl)ccc2Cl)c(S(=O)(=O)N2CCOCC2)c1` [Compound 82, 4-(2,5-Dichlorophenylthio)-3-(morpholinosulfonyl)benzonitrile], the Ki (CCR3 receptor) is reported as 100 to 500 nM and the melting point is reported as 216 to 219 °C.

Work on `CC1CN(S(=O)(=O)c2cc(C#N)ccc2Oc2cc(F)ccc2F)CC(C)N1` (stereo not drawn) (as salt: hydrochloride) [Compound 53, 4-(2,5-Difluorophenoxy)-3-(3,5-dimethylpiperazin-1-ylsulfonyl)benzonitrile] yielded a melting point of 157 to 159 °C.

In the case of `N#Cc1ccc(Oc2cc(F)ccc2F)c(S(=O)(=O)N2CCNCC2)c1` (as salt: hydrochloride) [Compound 52, 4-(2,5-Difluorophenoxy)-3-(piperazin-1-ylsulfonyl)benzonitrile], the melting point is reported as 125 to 143 °C.

Molecule `O=[N+]([O-])c1ccc(Sc2cc(Cl)ccc2Cl)c(S(=O)(=O)N2CCSCC2)c1` [Compound 114, 4-(2-(2,5-Dichlorophenylthio)-5-nitrophenylsulfonyl)thiomorpholine] has a Ki (CCR3 receptor) greater than 5 nM and a melting point of 189 to 191 °C.

`Cc1ccc(C)c(Oc2ccc([N+](=O)[O-])cc2S(=O)(=O)N2CCOCC2)c1` [Compound 113, 4-(2-(2,5-Dimethylphenoxy)-5-nitrophenylsulfonyl)morpholine] gave a Ki (CCR3 receptor) greater than 5 nM and a melting point of 124 to 127 °C.

`Cc1ccc(C)c(Oc2ccc([N+](=O)[O-])cc2S(=O)(=O)N2CCSCC2)c1` [Compound 117, 4-(2-(2,5-Dimethylphenoxy)-5-nitrophenylsulfonyl)thiomorpholine] gave a Ki (CCR3 receptor) greater than 5 nM and a melting point of 144 to 147 °C.

Molecule `CC1CN(S(=O)(=O)c2cc(C#N)ccc2Sc2cc(Cl)ccc2Cl)CC(C)N1` (stereo not drawn) (as salt: hydrochloride) [Compound 79, 4-(2,5-Dichlorophenylthio)-3-(3,5-dimethylpiperazin-1-ylsulfonyl)benzonitrile] has a melting point of 176 to 180 °C.

`CC(C)N1CCN(S(=O)(=O)c2cc(C#N)ccc2Oc2cc(F)ccc2F)CC1` (as salt: hydrochloride) [Compound 54, 4-(2,5-Difluorophenoxy)-3-(4-isopropylpiperazin-1-ylsulfonyl)benzonitrile] gave a melting point of 179 to 182 °C.

Work on `O=[N+]([O-])c1ccc(Oc2cc(Cl)ccc2Cl)c(S(=O)(=O)N2CCOCC2)c1` [Compound 111, 4-(2-(2,5-Dichlorophenoxy)-5-nitrophenylsulfonyl)morpholine] yielded a Ki (CCR3 receptor) greater than 5 nM and a melting point of 168 to 170 °C.

Molecule `O=[N+]([O-])c1ccc(Sc2cc(Cl)ccc2Cl)c(S(=O)(=O)N2CCOCC2)c1` [Compound 110, 4-(2-(2,5-Dichlorophenylthio)-5-nitrophenylsulfonyl)morpholine] has a Ki (CCR3 receptor) greater than 5 nM and a melting point of 182 to 186 °C.
